Data reported in US11939307B2, “Phenylmethyl-piperazine derivatives and antiviral uses thereof” (INSTITUTE OF MEDICINAL BIOTECHNOLOGY, CHINESE ACADEMY OF …, priority 2019, dated 2024).

Tested on: HCV
Test: Assay of anti-HCV activity in HCV-infected Huh7.5 cells (intracellular HCV RNA by one-step quantitative RT-PCR)
Type: cell-based
Settings: Hepatitis C virus, Huh7.5, 96 h, read-out: inhibitory activities (inhibitory levels of the compounds against HCV replication)
Experimental: 100 μL Huh7.5 cells were seeded at a density of 1×10^5/mL in a 96-well cell culture plate and incubated in an incubator at 37° C., 5% CO2 and saturated humidity for 6 hrs. Then, while infecting Huh7.5 cells with viral solution containing HCV virus particles, the compounds of the present invention (including all specific compounds listed herein) were added at a concentration of 1 μM, respectively. After continuing incubation for 96 hrs, the total intracellular RNA was extracted separately, and the content of intracellular HCV RNA was measured by one-step quantitative RT-PCR, compared with the RNA level of the viral control, and the inhibition rate of the compounds against HCV was calculated.

First: CN(CCN1CC1)c1ccc(C(F)(F)F)c(CN2CCN(C(c3ccc(Cl)cc3)c3ccc(Cl)cc3)CC2)c1 [Compound 64, N-(2-(aziridin-1-yl)ethyl)-3-((4-(bis(4-chlorophenyl)methyl)piperazin-1-yl)methyl)-N-methyl-4-(trifluoromethyl)aniline]
Second: CN(CCN1CC1)c1ccc(C#N)c(CN2CCN(C(c3ccc(Cl)cc3)c3ccc(Cl)cc3)CC2)c1 [Compound 87, 4-((2-(aziridin-1-yl)ethyl)(methyl)amino)-2-((4-(bis(4-chlorophenyl)methyl)piperazin-1-yl)methyl)benzonitrile]
The inhibition at 1 µM of the first is higher: greater than 75% for the first, 50 to 75% for the second.

Same assay, conditions: Hepatitis C virus; compound at 1 μM; Huh7.5 cells infected with HCV; 96 hrs; intracellular HCV RNA vs viral control; read-out: inhibitory activities (inhibitory levels of the compounds against HCV replication)

`CN(CCN1CCCC1)c1ccc(C(F)(F)F)c(CN2CCN(C(c3ccc(Cl)cc3)c3ccc(Cl)cc3)CC2)c1` [Compound 63, 3-((4-(bis(4-chlorophenyl)methyl)piperazin-1-yl)methyl)-N-methyl-N-(2-(pyrrolidin-1-yl)ethyl)-4-(trifluoromethyl)aniline] and `CN(CCN1CCCC1)c1ccc(C#N)c(CN2CCN(C(c3ccc(Cl)cc3)c3ccc(Cl)cc3)CC2)c1` [Compound 86, 2-((4-(bis(4-chlorophenyl)methyl)piperazin-1-yl)methyl)-4-(methyl(2-(pyrrolidin-1-yl)ethyl)amino)benzonitrile] cannot be ordered by inhibition at 1 µM: greater than 75% for the first, greater than 75% for the second.

First: CCN1CCCN(c2ccc(C(F)(F)F)c(CN3CCN(C(c4ccccn4)c4ccccn4)CC3)c2)CC1 [Compound 65, 1-(3-((4-(di(pyridin-2-yl)methyl)piperazin-1-yl)methyl)-4-(trifluoromethyl)phenyl)-4-ethyl-1,4-diazepane]
Second: CN1CCN(c2ccc(C(F)(F)F)c(CN3CCN(C(c4ccc(Br)cc4)c4ccc(Br)cc4)CC3)c2)CC1 [Compound 68, 1-(bis(4-bromophenyl)methyl)-4-(5-(4-methylpiperazin-1-yl)-2-(trifluoromethyl)benzyl)piperazine]
The inhibition at 1 µM of the first is lower: 50 to 75% for the first, greater than 75% for the second.

`CN(C)CCN(C)c1ccc(C(F)(F)F)c(CN2CCN(C(c3ccc(F)cc3)c3ccc(F)cc3)CC2)c1` [Compound 66, N^1-(3-((4-(bis(4-fluorophenyl)methyl)piperazin-1-yl)methyl)-4-(trifluoromethyl)phenyl)-N^1,N^2,N^2-trimethylethan-1,2-diamine] and `CN(C)CCN(C)CCN(C)c1ccc(C(F)(F)F)c(CN2CCN(C(c3ccc(F)cc3)c3ccc(F)cc3)CC2)c1` [Compound 71, N^1-(3-((4-(bis(4-fluorophenyl)methyl)piperazin-1-yl)methyl)-4-(trifluoromethyl)phenyl)-N^2-(2-(dimethylamino)ethyl)-N^1,N^2-dimethylethan-1,2-diamine] cannot be ordered by inhibition at 1 µM: greater than 75% for the first, greater than 75% for the second.

`CN(C)C1CCCN(c2ccc(C(F)(F)F)c(CN3CCN(C(c4ccc(Cl)cc4)c4ccc(Cl)cc4)CC3)c2)C1` (stereo not drawn) [Compound 67, 1-(3-((4-(bis(4-chlorophenyl)methyl)piperazin-1-yl)methyl)-4-(trifluoromethyl)phenyl)-N,N-dimethylpiperidin-3-amine] and `CN(C)C1CCN(c2ccc(C#N)c(CN3CCN(C(c4ccc(Cl)cc4)c4ccc(Cl)cc4)CC3)c2)C1` (stereo not drawn) [Compound 85, 2-((4-(bis(4-chlorophenyl)methyl)piperazin-1-yl)methyl)-4-(3-(dimethylamino)pyrrolidin-1-yl)benzonitrile] cannot be ordered by inhibition at 1 µM: greater than 75% for the first, greater than 75% for the second.

`CN(C)C1CCN(c2ccc(C(F)(F)F)c(CN3CCN(C(c4ccc(F)cc4)c4ccc(F)cc4)CC3)c2)CC1` [Compound 69, 1-(3-((4-(bis(4-fluorophenyl)methyl)piperazin-1-yl)methyl)-4-(trifluoromethyl)phenyl)-N,N-dimethylpiperidin-4-amine] and `CN1CCCN(c2ccc(C#N)c(CN3CCN(C(c4ccc(F)cc4)c4ccc(F)cc4)CC3)c2)CC1` [Compound 76, 2-((4-(bis(4-fluorophenyl)methyl)piperazin-1-yl)methyl)-4-(4-methyl-1,4-diazepan-1-yl)benzonitrile] cannot be ordered by inhibition at 1 µM: greater than 75% for the first, greater than 75% for the second.

`CCCN(C)CCN(C)c1ccc(C(F)(F)F)c(CN2CCN(C(c3ccc(Cl)cc3)c3ccc(Cl)cc3)CC2)c1` [Compound 70, N^1-(3-((4-(bis(4-chlorophenyl)methyl)piperazin-1-yl)methyl)-4-(trifluoromethyl)phenyl)-N^1,N^2-dimethyl-N^2-propylethan-1,2-diamine] and `CN(C)CCN(C)c1ccc(C#N)c(CN2CCN(C(c3ccc(Cl)cc3)c3ccc(Cl)cc3)CC2)c1` [Compound 74, 2-((4-(bis(4-chlorophenyl)methyl)piperazin-1-yl)methyl)-4-((2-(dimethylamino)ethyl)(methyl)amino)benzonitrile] cannot be ordered by inhibition at 1 µM: greater than 75% for the first, greater than 75% for the second.

`CN(C)CCN(C)c1ccc(C(F)(F)F)c(CN2CCC(C(c3ccc(Cl)cc3)c3ccc(Cl)cc3)CC2)c1` [Compound 72, N^1-(3-((4-(bis(4-chlorophenyl)methyl)piperidin-1-yl)methyl)-4-(trifluoromethyl)phenyl)-N^1,N^2,N^2-trimethylethan-1,2-diamine] and `CN(C)CCN(C)c1ccc(C#N)c(CN2CCC(C(c3ccc(Cl)cc3)c3ccc(Cl)cc3)CC2)c1` [Compound 90, 2-((4-(bis(4-chlorophenyl)methyl)piperidin-1-yl)methyl)-4-((2-(dimethylamino)ethyl)(methyl)amino)benzonitrile] cannot be ordered by inhibition at 1 µM: greater than 75% for the first, greater than 75% for the second.

`CN(C)CCN(C)c1ccc(C(F)(F)F)c(CN2CCC(C(c3ccc(Br)cc3)c3ccc(Br)cc3)CC2)c1` [Compound 73, N^1-(3-((4-(bis(4-bromophenyl)methyl)piperidin-1-yl)methyl)-4-(trifluoromethyl)phenyl)-N^1,N^2,N^2-trimethylethan-1,2-diamine] and `CN(C)CCN(C)c1ccc(C#N)c(CN2CCN(C(c3ccc(Br)cc3)c3ccc(Br)cc3)CC2)c1` [Compound 83, 2-((4-(bis(4-bromophenyl)methyl)piperazin-1-yl)methyl)-4-((2-(dimethylamino)ethyl)(methyl)amino)benzonitrile] cannot be ordered by inhibition at 1 µM: greater than 75% for the first, greater than 75% for the second.

`COc1ccc(C(c2ccc(OC)cc2)N2CCN(Cc3cc(N4CCCN(C)CC4)ccc3C#N)CC2)cc1` [Compound 75, 2-((4-(bis(4-methoxyphenyl)methyl)piperazin-1-yl)methyl)-4-(4-methyl-1,4-diazepan-1-yl)benzonitrile] and `CN1CCCN(c2ccc(C#N)c(CN3CCN(C(c4ccc(Cl)cc4)c4ccc(Cl)cc4)CC3)c2)CC1` [Compound 77, 2-((4-(bis(4-chlorophenyl)methyl)piperazin-1-yl)methyl)-4-(4-methyl-1,4-diazepan-1-yl)benzonitrile] cannot be ordered by inhibition at 1 µM: greater than 75% for the first, greater than 75% for the second.

`CN(CCn1ccnc1)c1ccc(C#N)c(CN2CCN(C(c3ccc(Cl)cc3)c3ccc(Cl)cc3)CC2)c1` [Compound 78, 4-((2-(1H-imidazol-1-yl)ethyl)(methyl)amino)-2-((4-(bis(4-chlorophenyl)methyl)piperazin-1-yl)methyl)benzonitrile] and `CN1CCN(c2ccc(C#N)c(CN3CCN(C(c4ccc(Cl)cc4)c4ccc(Cl)cc4)CC3)c2)CC1` [Compound 80, 2-((4-(bis(4-chlorophenyl)methyl)piperazin-1-yl)methyl)-4-(4-methylpiperazin-1-yl)benzonitrile] cannot be ordered by inhibition at 1 µM: greater than 75% for the first, greater than 75% for the second.

First: CN(C)CCN(C)c1ccc(C#N)c(CN2CCN(C(c3ccncc3)c3ccncc3)CC2)c1 [Compound 79, 2-((4-(di(pyridin-4-yl)methyl)piperazin-1-yl)methyl)-4-((2-(dimethylamino)ethyl)(methyl)amino)benzonitrile]
Second: CC(C)c1ccc(C(c2ccc(C(C)C)cc2)N2CCN(Cc3cc(N(C)CCN(C)C)ccc3C#N)CC2)cc1 [Compound 81, 2-((4-(bis(4-isopropylphenyl)methyl)piperazin-1-yl)methyl)-4-((2-(dimethylamino)ethyl)(methyl)amino)benzonitrile]
The inhibition at 1 µM of the first is lower: 50 to 75% for the first, greater than 75% for the second.

`CN(C)CCN(C)c1ccc(C#N)c(CN2CCN(C(c3ccc(C(C)(C)C)cc3)c3ccc(C(C)(C)C)cc3)CC2)c1` [Compound 82, 2-((4-(bis(4-tert-butylphenyl)methyl)piperazin-1-yl)methyl)-4-((2-(dimethylamino)ethyl)(methyl)amino)benzonitrile] and `CN(C)CCN(C)c1ccc(C#N)c(CN2CCN(C(c3ccc(C4CC4)cc3)c3ccc(C4CC4)cc3)CC2)c1` [Compound 84, 2-((4-(bis(4-cyclopropylphenyl)methyl)piperazin-1-yl)methyl)-4-((2-(dimethylamino)ethyl)(methyl)amino)benzonitrile] cannot be ordered by inhibition at 1 µM: greater than 75% for the first, greater than 75% for the second.

`CN1CCCN(c2ccc(C#N)c(CN3CCN(C(c4ccccc4)c4ccc(Cl)cc4)CC3)c2)CC1` (stereo not drawn) [Compound 88, 2-((4-((4-chlorophenyl)(phenyl)methyl)piperazin-1-yl)methyl)-4-(4-methyl-1,4-diazepan-1-yl)benzonitrile] and `CN1CCCN(c2ccc(C#N)c(CN3CCN(C(c4ccncc4)c4ccc(Cl)cc4)CC3)c2)CC1` (stereo not drawn) [Compound 89, 2-((4-((4-chlorophenyl)(pyridin-4-yl)methyl)piperazin-1-yl)methyl)-4-(4-methyl-1,4-diazepan-1-yl)benzonitrile] cannot be ordered by inhibition at 1 µM: greater than 75% for the first, greater than 75% for the second.

`CN1CCCN(c2ccc(C#N)c(CN3CCC(C(c4ccc(F)cc4)c4ccc(F)cc4)CC3)c2)CC1` [Compound 91, 2-((4-(bis(4-fluorophenyl)methyl)piperidin-1-yl)methyl)-4-(4-methyl-1,4-diazepan-1-yl)benzonitrile] and `CN1CCC(N(C)c2ccc(C(F)(F)F)c(CN3CCN(c4ccc(Cl)cc4)CC3)c2)C1` (stereo not drawn) [Compound 92] cannot be ordered by inhibition at 1 µM: greater than 75% for the first, greater than 75% for the second.
